Measurements as given in US20150099012A1, “METHODS FOR ACTIVATING RETROVIRUS IN LATENT INFECTED CELLS, AND COMPOUNDS FOR USE THEREIN” (Erasmus University Medical Center Rotterdam, priority 2012, published 2015).

What was measured:
latent HIV LTR = experiment: Activation of latent HIV LTR in J-Lat/S-Lat latently infected cell lines (GFP reporter, FACS); format: cell-based, HIV-1; details: for de-repression / activation of latent HIV LTR: single agents, J-Lat/S-Lat or 1G5 cells, FIG. 5
Experimental: A) S-Lat 46, J-Lat P32, J-Lat A2, J-Lat 11.1, S-Lat 24, S-Lat 9 and […], and GFP expression was monitored by FACS analysis to determine activation of the latent LTR. B) J-Lat P32 and (C) S-Lat 30 Jurkats and SupT1 cell lines harbouring latently infected HIV were either untreated or treated with 2, 5 or 10 mM LiCl as indicated. Expression of HIV-LTR driven P24 and GFP, and endogenous Wnt target genes AXIN2, MMP9, TCF1, as well as control GAPDH and NFkB target genes TLR2 and ICAM1 was monitored by qRT-PCR 72 hours after treatment. Expression data are presented as fold induction normalized to Cyclophillin A control.
(§1) Expression data are presented as fold induction normalized to Cyclophillin A control.

[1] = system: HIV LTR nucleosomes (DHS1, nuc-1); experiment: PCR-based MNase mapping of latent HIV LTR nucleosome structure; format: cell-based
From the text: The high resolution dynamic nucleosomal structure of latently integrated HIV LTR is mapped in presence or absence of Wnt stimulation.
It is an aspect of this invention that this synergistic effect on LTR nucleosome structure extends to other LTR de-repressors.

latently infected PBMCs = experiment: Primary PBMC latency model, HIV expression after treatment; format: cell-based; details: PBMCs infected with LTR-Tat-IRES-GFP virus, sorted five days after infection
From the text: PBMCs were infected with VSV-G pseudotyped LTR-Tat-IRES-GFP virus particles and examined establishment of a latent phenotype, as in the cell line latency models (J-Lat/S-Lat). Briefly, PBMCs were Ficoll-purified from buffycoats of healthy donors, activated with phytohemagglutinin (PHA-L) and Interleukin-2 (IL-2), followed by virus infection. Five days after infection, GFP negative cells were sorted by FACS, placed in culture. […] Thus, even in the context of a fully activated T cell, integration of HIV at select sites will lead to the suppression of HIV transcription.

[2] = system: NFkB target genes TLR2 and ICAM1; experiment: qRT-PCR of NFkB target genes in latent HIV-infected Jurkat/SupT1 cell lines; format: cell-based
Experimental: as §1
(§2) Latent HIV-infected S-Lat 30 (A) and J-LatP32 (B) were treated with Wnt3A or control conditioned media. Relative mRNA expression levels of endogenous Wnt target genes AXIN2, ZCCHC12, TCF1, MMP9, the HIV P24 Gag and the LTR-reporter GFP, control (GAPDH) and NFkB target genes were quantitated by qRT-PCR. Expression data are presented as fold induction normalized to Cyclophillin A control.
(§3) A) S-Lat 46, J-Lat P32, J-Lat A2, J-Lat 11.1, S-Lat 24, S-Lat 9 and S-Lat 30 latently infected Jurkat and SupT1 cell lines were treated with Lithium Chloride (10 mM) for 2 hours, and GFP expression was monitored by FACS analysis to determine activation of the latent LTR. B) J-Lat P32 and (C) S-Lat 30 Jurkats and SupT1 cell lines harbouring latently infected HIV were either untreated or treated with 2, 5 or 10 mM LiCl as indicated. Expression of HIV-LTR driven P24 and GFP, and endogenous Wnt target genes AXIN2, MMP9, TCF1, as well as control GAPDH and NFkB target genes TLR2 and ICAM1 was monitored by qRT-PCR 72 hours after treatment. Expression data are presented as fold induction normalized to Cyclophillin A control.
as §2, with “In addition, latent” for “Latent”

[3] = system: Wnt target genes AXIN2, TCF7(TCF1), MMP9, ZCCHC12, MMP2; experiment: qRT-PCR of endogenous Wnt target genes in latent HIV-infected Jurkat/SupT1 cell lines; format: cell-based; details: Wnt3A conditioned media; S-Lat 30 and J-LatP32; FIG. 7
Experimental: as §1, §2
as §3, with “B) J-Lat P32 and (C) S-Lat 30 Jurkats and SupT1 cell lines harbouring latently infected HIV were either untreated or treated with 2, 5 or 10 mM LiCl as indicated.” left out, “Expression data are presented as fold induction normalized to Cyclophillin A control.” left out
as §2, with “In addition, latent” for “Latent”, “Expression data are presented as fold induction normalized to Cyclophillin A control.” left out

[4] = system: latent HIV (P24 Gag, LTR-reporter GFP); experiment: qRT-PCR of HIV P24 Gag and LTR-reporter GFP mRNA in latent HIV-infected cell lines; format: cell-based; details: Wnt3A conditioned media; S-Lat 30 and J-LatP32; FIG. 7
From the text: A) Exogenous expression of S33Y β-catenin in S-Lat30 latent HIV infected cell line results in activation of TCF/LEF-driven TOPFLASH luciferase activity. […] S33Y β-catenin expression also results in a concomitant activation of latent HIV in S-Lat30 HIV infected cell line as quantitated by increased mRNA expression of HIV P24 Gag and the LTR-reporter GFP. Expression data are presented as fold induction normalized to Cyclophillin A control.
as §2
as §2, with “In addition, latent” for “Latent”, “control. […]” for “control.”

With `Cc1c[nH]c(-c2cnc(NCCNc3ccc(C#N)cn3)nc2-c2ccc(Cl)cc2Cl)n1` [CHIR-99021, 6-(2-(4-(2,4-Dichlorophenyl)-5-(4-methyl-1H-imidazol-2-yl)-pyrimidin-2-ylamino)ethyl-amino)-nicotinonitrile] the “activation of the latent LTR (GFP expression by FACS)” value (latent HIV LTR; 1 μM, 24 hours, J-Lat P44, S-Lat 24, J-Lat P21, J-Lat 11.1, S-Lat 9, S-Lat 30, FIG. 8) was “activation of the HIV LTR”.

For `CCCCCCCCCCCCCC(=O)O[C@@H]1[C@@H](C)[C@@]2(O)[C@@H](C=C(CO)C[C@]3(O)C(=O)C(C)=C[C@@H]23)[C@@H]2C(C)(C)[C@]12OC(C)=O` [PMA], the “loosely positioned nucleosomes over DHS1 (MNase mapping)” value ([1]; PMA stimulation) was “disappear” and the “HIV expression in GFP negative sorted infected PBMCs” value (latently infected PBMCs) was “activated HIV expression”.

With `CC(=O)O[C@@]12C[C@@H](C)[C@@]3(O)[C@@H](C=C(CO)C[C@]4(O)C(=O)C(C)=C[C@@H]34)[C@@H]1C2(C)C` [Prostratin] the “mRNA expression of NFkB target genes TLR2, ICAM1 (RT-PCR)” value ([2]; Lithium 1 mM-10 mM, Prostratin as positive control, FIG. 9) was “activation of the NFkB target genes TLR2 and ICAM”.

`CCCC(CCC)C(=O)O` [VPA, valproic acid] was tested, and the “de-repression / activation of latent HIV LTR” value (shortened to “de-repression / activation”) (latent HIV LTR) was “marginal activation” and the “remodelling of nuc-1 (MNase mapping)” value ([1]; co-treatment of VPA with Wnt stimulation) was “dramatic remodelling of the repressive nuc-1”.

TNFa was tested, and the “HIV expression in GFP negative sorted infected PBMCs” value (latently infected PBMCs) was “activated HIV expression”.

For Wnt3A, the “de-repression / activation” value (latent HIV LTR) was “de-repression of latent HIV LTR”, the “activation of endogenous Wnt target genes (qRT-PCR)” value [3] was “activates latent HIV and endogenous Wnt target genes” and the “activation of NFkB target genes (qRT-PCR)” value ([2]; Wnt3A conditioned media, S-Lat 30 and J-LatP32, FIG. 7) was “not NFkB target genes”. The “activation of latent HIV (P24 Gag and LTR-reporter GFP mRNA, qRT-PCR)” value [4] was “activates latent HIV”.

B1: R-spondin: LGR ligand, 27 kDa protein, used as R-spondin1-conditioned medium from HEK293T (protein, UniProt Q2MKA7 21-263, looked up)
R-spondin-1: SRGIKGKRQRRISAEGSQACAKGCELCSEVNGCLKCSPKLFILLERNDIRQVGVCLPSCPPGYFDARNPDMNKCIKCKIEHCEACFSHNFCTKCKEGLYLHKGRCYPACPEGSSAANGTMECSSPAQCEMSEWSPWGPCSKKQQLCGFRRGSEERTRRVLHAPVGDHAACSDTKETRRCTVRRVPCPEGQKRRKGGQGRRENANRNLARKESKEAGAGSRRRKGQQQQQQQGTVGPLTSAGPA
modifications: conditioned medium
notes: LGR ligand, 27 kDa protein, used as R-spondin1-conditioned medium from HEK293T
B1 was tested, and the “de-repression / activation” value (latent HIV LTR) was “de-repression of latent HIV LTR”.
